Assay results: US11111237B2, “Bicyclic compound and use thereof” (SK BIOPHARMACEUTICALS CO., LTD., priority 2019, dated 2021)

What follows are molecules tested against PRMT5-MEP50 enzyme complex (Homo sapiens (Human), UniProt O14744) (assay: PRMT5 enzyme activity in vitro assay (methylation of histone H4R3, ELISA absorbance at 450 nm)). Conditions: SAM, histone H4 peptide, room temperature 2 hours, 8 points from 10 μM to 0.128 nM.
Type: biochemical
Summary of the method: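 IC50 was derived from ELISA absorbance at 450 nm, using primary and HRP antibodies against H4R3 methylation on immobilised histone H4 peptide (residues 1-20). Compounds (10 μM to 0.128 nM, 8 points, 1:5) were incubated 2 h at room temperature with the PRMT5-MEP50 complex and SAM, diluted to 5 μg/mL and 2 μM respectively.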

Chain of PRMT5-MEP50 enzyme complex (O14744 2-637): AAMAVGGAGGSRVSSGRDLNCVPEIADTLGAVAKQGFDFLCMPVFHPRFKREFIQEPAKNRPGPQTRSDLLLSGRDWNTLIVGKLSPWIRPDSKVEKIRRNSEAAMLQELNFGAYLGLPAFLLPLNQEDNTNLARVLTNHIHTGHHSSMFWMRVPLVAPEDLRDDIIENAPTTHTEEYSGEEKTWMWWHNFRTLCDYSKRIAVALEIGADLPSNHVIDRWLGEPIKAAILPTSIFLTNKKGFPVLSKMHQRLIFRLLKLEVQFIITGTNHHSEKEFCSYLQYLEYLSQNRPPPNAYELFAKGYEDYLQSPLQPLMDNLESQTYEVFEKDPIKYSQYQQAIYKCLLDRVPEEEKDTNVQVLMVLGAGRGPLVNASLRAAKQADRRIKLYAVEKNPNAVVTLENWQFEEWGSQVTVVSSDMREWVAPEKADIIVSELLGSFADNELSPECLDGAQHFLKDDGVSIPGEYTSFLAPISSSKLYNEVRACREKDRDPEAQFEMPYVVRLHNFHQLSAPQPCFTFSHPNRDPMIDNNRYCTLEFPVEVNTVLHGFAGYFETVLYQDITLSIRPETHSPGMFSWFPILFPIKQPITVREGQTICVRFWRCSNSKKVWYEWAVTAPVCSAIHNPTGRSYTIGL
Chain of PRMT5-MEP50 enzyme complex (Q9BQA1 2-342 partner): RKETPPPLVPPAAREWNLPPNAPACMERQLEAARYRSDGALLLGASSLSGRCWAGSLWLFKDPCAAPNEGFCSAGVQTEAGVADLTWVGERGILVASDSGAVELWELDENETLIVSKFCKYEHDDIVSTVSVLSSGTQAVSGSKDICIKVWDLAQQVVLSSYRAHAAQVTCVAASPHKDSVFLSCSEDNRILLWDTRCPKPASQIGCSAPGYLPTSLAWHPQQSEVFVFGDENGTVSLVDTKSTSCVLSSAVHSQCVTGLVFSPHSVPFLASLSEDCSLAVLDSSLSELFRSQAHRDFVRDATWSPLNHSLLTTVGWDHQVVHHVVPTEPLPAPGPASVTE

| SMILES | IC50 [nM] |
| --- | --- |
| O=C1c2ccc(CN3CCCC(F)(F)C3)cc2OCCN1C[C@H](O)CN1CCc2ccccc2C1 [Example 42, 8-[(3,3-difluoro-1-piperidyl)methyl]-4-[(2R)-3-(3,4-dihydro-1H-isoquinolin-2-yl)-2-hydroxy-propyl]-2,3-dihydro-1,4-benzoxazepin-5-one] | 100 to 1000 |
| O=C1c2ccc(OCc3ccc(F)nc3)cc2OCCN1C[C@H](O)CN1CCc2ccccc2C1 [Example 61, 4-[(2R)-3-(3,4-dihydro-1H-isoquinolin-2-yl)-2-hydroxy-propyl]-8-[(6-fluoro-3-pyridyl)methoxy]-2,3-dihydro-1,4-benzoxazepin-5-one] | 100 to 1000 |
| O=C1c2ccc(CN3CCCOCC3)cc2OCCN1C[C@H](O)CN1CCc2ccccc2C1 [Example 39, 4-[(2R)-3-(3,4-dihydro-1H-isoquinolin-2-yl)-2-hydroxy-propyl]-8-(1,4-oxazepan-4-ylmethyl)-2,3-dihydro-1,4-benzoxazepin-5-one] | 100 to 1000 |
| O=C1c2ccc(CN3CCC[C@@H]3CO)cc2OCCN1C[C@H](O)CN1CCc2ccccc2C1 [Example 47, 4-[(2R)-3-(3,4-dihydro-1H-isoquinolin-2-yl)-2-hydroxy-propyl]-8-[[(2R)-2-(hydroxymethyl)pyrrolidin-1-yl]methyl]-2,3-dihydro-1,4-benzoxazepin-5-one] | 100 to 1000 |
| CC(=O)N1CCC(Oc2ccc3c(c2)N(C)CCN(C[C@H](O)CN2CCc4ccccc4C2)C3=O)CC1 [Example 121, 8-[(1-acetyl-4-piperidyl)oxy]-4-[(2R)-3-(3,4-dihydro-1H-isoquinolin-2-yl)-2-hydroxy-propyl]-1-methyl-2,3-dihydro-1,4-benzodiazepin-5-one] | 100 to 1000 |
| O=C1c2ccc(OCc3ccncc3)cc2OCCN1C[C@H](O)CN1CCc2ccccc2C1 [Example 57, 4-[(2R)-3-(3,4-dihydro-1H-isoquinolin-2-yl)-2-hydroxy-propyl]-8-(4-pyridylmethoxy)-2,3-dihydro-1,4-benzoxazepin-5-one] | 1 to 100 |
| CCN1CCC(Oc2ccc3c(c2)N(C)CCN(C[C@H](O)CN2CCc4ccccc4C2)C3=O)C(F)C1 (stereo partly drawn) [Example 136, 4-[(2R)-3-(3,4-dihydro-1H-isoquinolin-2-yl)-2-hydroxy-propyl]-8-[(1-ethyl-3-fluoro-4-piperidyl)oxy]-1-methyl-2,3-dihydro-1,4-benzodiazepin-5-one] | 100 to 1000 |
| CN1CCC(Oc2ccc3c(c2)OCCN(C[C@H](O)CN2CCc4ccccc4C2)C3=O)C1 (stereo partly drawn) [Example 98, 4-[(2R)-3-(3,4-dihydro-1H-isoquinolin-2-yl)-2-hydroxy-propyl]-8-(1-methylpyrrolidin-3-yl)oxy-2,3-dihydro-1,4-benzoxazepin-5-one] | 100 to 1000 |
| O=C1c2ccc(OCc3ccnc(F)c3F)cc2OCCN1C[C@H](O)CN1CCc2ccccc2C1 [Example 60, 8-[(2,3-difluoro-4-pyridyl)methoxy]-4-[(2R)-3-(3,4-dihydro-1H-isoquinolin-2-yl)-2-hydroxy-propyl]-2,3-dihydro-1,4-benzoxazepin-5-one] | 100 to 1000 |
| CC1(C)CN(C[C@H](O)CN2CCc3ccccc3C2)C(=O)c2ccc(CN3CCOCC3)cc2O1 [Example 111, 4-[(2R)-3-(3,4-dihydro-1H-isoquinolin-2-yl)-2-hydroxy-propyl]-2,2-dimethyl-8-(morpholinomethyl)-3H-1,4-benzoxazepin-5-one] | 100 to 1000 |
| CC(C)N1CCC(Oc2ccc3c(c2)OCCN(C[C@H](O)CN2CCc4ccccc4C2)C3=O)CC1 [Example 89, 4-[(2R)-3-(3,4-dihydro-1H-isoquinolin-2-yl)-2-hydroxy-propyl]-8-[(1-isopropyl-4-piperidyl)oxy]-2,3-dihydro-1,4-benzoxazepin-5-one] | 1 to 100 |
| COC[C@H]1CCCN1Cc1ccc2c(c1)OCCN(C[C@H](O)CN1CCc3ccccc3C1)C2=O [Example 50, 4-[(2R)-3-(3,4-dihydro-1H-isoquinolin-2-yl)-2-hydroxy-propyl]-8-[[(2R)-2-(methoxymethyl)pyrrolidin-1-yl]methyl]-2,3-dihydro-1,4-benzoxazepin-5-one] | 1 to 100 |
| O=C1c2ccc(CN3CC4CCCC4C3)cc2OCCN1C[C@H](O)CN1CCc2ccccc2C1 (stereo partly drawn) [Example 34, 8-(3,3a,4,5,6,6a-hexahydro-1H-cyclopenta[c]pyrrol-2-ylmethyl)-4-[(2R)-3-(3,4-dihydro-1H-isoquinolin-2-yl)-2-hydroxy-propyl]-2,3-dihydro-1,4-benzoxazepin-5-one] | 1 to 100 |
| CN1CCCC(COc2ccc3c(c2)N(C)CCN(C[C@H](O)CN2CCc4ccccc4C2)C3=O)C1 (stereo partly drawn) [Example 133, 4-[(2R)-3-(3,4-dihydro-1H-isoquinolin-2-yl)-2-hydroxy-propyl]-1-methyl-8-[(1-methyl-3-piperidyl)methoxy]-2,3-dihydro-1,4-benzodiazepin-5-one] | 1 to 100 |
| CN1CCC(COc2ccc3c(c2)N(C)CCN(C[C@H](O)CN2CCc4ccccc4C2)C3=O)C1 (stereo partly drawn) [Example 131, 4-[(2R)-3-(3,4-dihydro-1H-isoquinolin-2-yl)-2-hydroxy-propyl]-1-methyl-8-[(1-methylpyrrolidin-3-yl)methoxy]-2,3-dihydro-1,4-benzodiazepin-5-one] | 100 to 1000 |
| O=C1c2ccc(CN3CCC(F)(F)CC3)cc2OCCN1C[C@H](O)CN1CCc2ccccc2C1 [Example 31, 8-[(4,4-difluoro-1-piperidyl)methyl]-4-[(2R)-3-(3,4-dihydro-1H-isoquinolin-2-yl)-2-hydroxy-propyl]-2,3-dihydro-1,4-benzoxazepin-5-one] | 1 to 100 |
| CC(=O)N1CC=C(c2ccc3c(c2)OCCN(C[C@H](O)CN2CCc4ccccc4C2)C3=O)CC1 [Example 16, 8-(1-acetyl-3,6-dihydro-2H-pyridin-4-yl)-4-[(2R)-3-(3,4-dihydro-1H-isoquinolin-2-yl)-2-hydroxy-propyl]-2,3-dihydro-1,4-benzoxazepin-5-one] | 1 to 100 |
| O=C1c2ccc(OCC3CCCCO3)cc2OCCN1C[C@H](O)CN1CCc2ccccc2C1 (stereo partly drawn) [Example 65, 4-[(2R)-3-(3,4-dihydro-1H-isoquinolin-2-yl)-2-hydroxy-propyl]-8-(tetrahydropyran-2-ylmethoxy)-2,3-dihydro-1,4-benzoxazepin-5-one] | 100 to 1000 |

More lines, now with the values ahead:

| IC50 [nM] | SMILES |
| --- | --- |
| 100 to 1000 | O=C1c2ccc(OC3CCN(CCF)CC3)nc2OCCN1C[C@H](O)CN1CCc2ccccc2C1 [Example 164, 4-[(2R)-3-(3,4-dihydro-1H-isoquinolin-2-yl)-2-hydroxy-propyl]-8-[[1-(2-fluoroethyl)-4-piperidyl]oxy]-2,3-di hydropyrido[3,2-f][1,4]oxazepin-5-one] |
| 100 to 1000 | O=C1c2ccccc2OCCN1C[C@H](O)CN1CCc2ccccc2C1 [Example 149, 4-[(2R)-3-(3,4-dihydro-1H-isoquinolin-2-yl)-2-hydroxy-propyl]-2,3-dihydro-1,4-benzoxazepin-5-one] |
| 1 to 100 | O=C1c2ccc(OC3CN(C(=O)C(F)F)C3)cc2OCCN1C[C@H](O)CN1CCc2ccccc2C1 [Example 161] |
| 100 to 1000 | CC1(C)CN(C[C@H](O)CN2CCc3ccccc3C2)C(=O)c2ccc(CN3CCCCC3)nc2O1 [Example 197, 4-[(2R)-3-(3,4-dihydro-1H-isoquinolin-2-yl)-2-hydroxy-propyl]-2,2-dimethyl-8-(1-piperidylmethyl)-3H-pyrido[3,2-f][1,4]oxazepin-5-one] |
| 100 to 1000 | CC1(C)CN(C[C@H](O)CN2CCc3ccccc3C2)C(=O)c2ccc(CN3CCC4(COC4)C3)cc2O1 [Example 183, 4-[(2R)-3-(3,4-dihydro-1H-isoquinolin-2-yl)-2-hydroxy-propyl]-2,2-dimethyl-8-(2-oxa-7-azaspiro[3.4]octan-7-ylmethyl)-3H-1,4-benzoxazepin-5-one] |
| 100 to 1000 | CC1CN(C(=O)c2ccc3c(c2)OCCN(C[C@H](O)CN2CCc4ccccc4C2)C3=O)CC(C)O1 (stereo partly drawn) [Example 187, 4-[(2R)-3-(3,4-dihydro-1H-isoquinolin-2-yl)-2-hydroxy-propyl]-8-(2,6-dimethylmorpholin-4-carbonyl)-2,3-dihydro-1,4-benzoxazepin-5-one] |
| 1 to 100 | O=C1c2ccc(C#Cc3cccnc3)cc2OCCN1C[C@H](O)CN1CCc2ccccc2C1 [Example 227, 4-[(2R)-3-(3,4-dihydro-1H-isoquinolin-2-yl)-2-hydroxy-propyl]-8-[2-(3-pyridyl)ethynyl]-2,3-dihydro-1,4-benzoxazepin-5-one] |
| 100 to 1000 | CC1CN(C[C@H](O)CN2CCc3ccccc3C2)C(=O)c2ccc(OC3CCN(C)CC3)nc2O1 (stereo partly drawn) [Example 144, 4-[(2R)-3-(3,4-dihydro-1H-isoquinolin-2-yl)-2-hydroxypropyl]-2-methyl-8-[(1-methyl-4-piperidyl)oxy]-2,3-dihydropyrido[3,2-f][1,4]oxazepin-5-one] |
| 100 to 1000 | CC1(C)CN(C[C@H](O)CN2CCc3ccccc3C2)C(=O)c2ccc(CN3CCN(C=O)CC3)cc2O1 [Example 169, 4-[[4-[(2R)-3-(3,4-dihydro-1H-isoquinolin-2-yl)-2-hydroxy-propyl]-2,2-dimethyl-5-oxo-3H-1,4-benzoxazepin-8-yl]methyl]piperazine-1-carbaldehyde] |
| 100 to 1000 | CC1COCCN1C(=O)c1ccc2c(c1)OCCN(C[C@H](O)CN1CCc3ccccc3C1)C2=O (stereo partly drawn) [Example 191, 4-[(2R)-3-(3,4-dihydro-1H-isoquinolin-2-yl)-2-hydroxy-propyl]-8-(3-methylmorpholin-4-carbonyl)-2,3-dihydro-1,4-benzoxazepin-5-one] |
| 100 to 1000 | O=C1c2ccc(F)cc2OCCN1C[C@H](O)CN1CCc2ccccc2C1 [Example 150, 4-[(2R)-3-(3,4-dihydro-1H-isoquinolin-2-yl)-2-hydroxy-propyl]-8-fluoro-2,3-dihydro-1,4-benzoxazepin-5-one] |
| 100 to 1000 | CC1(C)CN(C[C@H](O)CN2CCc3ccccc3C2)C(=O)c2ccc(C(=O)N3CCn4cccc4C3)cc2O1 [Example 209, 4-[(2R)-3-(3,4-dihydro-1H-isoquinolin-2-yl)-2-hydroxy-propyl]-8-(3,4-dihydro-1H-pyrrolo[1,2-a]pyrazine-2-carbonyl)-2,2-dimethyl-3H-1,4-benzoxazepin-5-one] |
